The source of these data is patent US20070092907A1, “Methods of screening compound probes” (priority 2005, published 2007).

Entries after “also recorded” stand apart in the source; their conditions may differ.

One assay relates to rat glioma C6 cells. Kind of assay: C6 cell uptake of phosphonium cations determined by MALDI-TOF-MS. Type of assay: cell-based. The following applies: for cell uptake / accumulation (in words): up to 90 min; for percent cell uptake: plateau at ~90 minute after incubation. The protocol:
MALDI-TOF Mass Spectrometry: MALIDI-TOF-MS experiments were performed on a Perseptive Voyager-DE RP Biospectrometry instrument (Framingham, Mass.). On the MALDI-TOF-MS target plate, 1 μL each of sample solution and 1 μL of the matrix were mixed. […] For each analysis, the laser spot randomly hit the sample to generate an averaged MALDI-TOF-MS spectrum. Three spectra were produced for each sample, and analyte to internal standard response ratios were averaged.
C6 cells (0.5×10^6/50 μL) were incubated with 10 μL 100 μM stock phosphonium salts solution (5 μM final concentration) and 140 μL HEPES buffer from 10 to 90 min at room temperature. The cells were centrifuged (250×g) for three minutes and washed twice with cold PBS buffer at specified times. Cell pellets were then lysed with 150 μL cold spectral grade water, followed by freezing in dry ice. Right before the MALDI-TOF-MS analysis, the frozen cell solution was thawed and centrifuged at 12000×g for 5 min. An aliquot of 90 μL of cell lysate and 10 μL of 10 μM internal standard MeTPP were mixed together, and 1 μL of solution was subjected to MALDI-TOF-MS analysis. Samples collected from three independent cell lysates were prepared for each study and subjected for MALDI-TOF-MS analysis.
Then they were diluted with C6 cell lysate (0.5×10^6 cells per 150 μL, these cells were not incubated with any phosphonium compound prior to lysis) to make various concentrations of compound and stored at 0° C. One micromolar MeTPP in 10 μL volume, which was used as internal standard, and 10 μL phosphonium cations with concentrations ranging from 0.1 μM-1.5 μM were mixed together thoroughly. Subsequently, 1 μL aliquot and 1 μL matrix αCHCA were deposited on the target plate and dried for MALDI-TOF-MS analysis. Triplicate samples were prepared and analyzed.

The test system of assay [1] is C6 cells. Kind of assay: Mitochondrial and plasma membrane potential dependent uptake in C6 cells (CCCP, valinomycin, high K+ HEPES buffer), MALDI-TOF-MS. It is filed as cell-based, rat. The following applies: for decrease in uptake on depolarization of the plasma membrane (high K+ vs low K+ buffer): 90 min exposure time; for effect of CCCP on uptake: CCCP at 1 μM concentration; for nature of uptake (membrane potential dependence): C6 cells, CCCP, valinomycin, high K+ buffer. The protocol: K^+-ionophore valinomycin was dissolved in ethanol and also diluted with low K^+ buffer. Final concentrations of ethanol and DMSO were below 0.1%. Varying concentrations of CCCP and valinomycin were added to the 0.5×10^6 cells in low K^+ HEPES buffer 30 min prior to the start of the experiment. […] The viability and the integrity of the cells after treatment with inhibitors and high K^+ buffer were examined using Trypan blue.

The subject of assay [2] is C6 cells. Kind of assay: C6 cell uptake of 3H-TPP by scintillation counting. Type of assay: cell-based, rat. As to conditions: 5 μM, 25° C., 90 min. The protocol:
Cell Uptake of ^3H-tetraphenylphosphonium (^3H-TPP): C6 cell uptake of ^3H-TPP was also performed for direct comparison with cell uptakes of TPP and FTPP determined through MALDI-TOF-MS. Briefly, 0.5×10^6 cells were incubated with 5 μM ^3H-TPP [^3H-TPP was spiked with TPP to make a final concentration of 12.21 GBq/mmol (0.33 Ci/mmol)] from 10 to 90 min in a 200 μL HEPES buffer at room temperature. Cell lysate was prepared using the same procedure as described in the Cell Uptake Studies of Phosphonium Cations section, and the radioactivity of cell lysate was counted. Triplicate samples were obtained for all uptake studies. Data were expressed as the accumulation of the amount of probe in each cell or percent cell uptake (fmols/cell, % cell uptake). ^3H analyses were performed with a Beckman LS-6500 liquid scintillation counter with Biosafe II scintillation fluid (Research Products International, Mount prospect, Ill.). The attenuation and quenching effects resulting from the cell lysate used in this experiment were determined to be negligible, and the disintegration per minute (dpm) was obtained by correcting for background activity and efficiency (69.3% for ^3H).

`BrCCCC[P+](c1ccccc1)(c1ccccc1)c1ccccc1.[Br-]` [BrTPP, (4-bromobutyl) triphenyl-phosphine bromide]: the “uptake compared with tetraphenylphosphonium analogs (TPP and FTPP)” value with rat glioma C6 cells (5 μM, C6 cells) is reported as “much lower uptake”.
Still for that read-out and setting: under `CCCC[P+](c1ccccc1)(c1ccccc1)c1ccccc1.[Cl-]` [BuTPP, butyltriphenylphosphonium chloride] stands “much lower uptake”.
As to `O=C(O)CCCC[P+](c1ccccc1)(c1ccccc1)c1ccccc1.[Br-]` [CoTPP, (4-carboxybutyl)triphenyl-phosphonium bromide], the “cell uptake / accumulation (in words)” value in the assay on rat glioma C6 cells (5 μM, C6 cells) is on record as “either does not accumulate or accumulates minimally”. Also, the “detection of compound in cell lysate by MALDI-TOF-MS” value in the assay with rat glioma C6 cells (C6 cell lysate after incubation with compound) is recorded as “could not be identified”.
With `Fc1ccc([P+](c2ccc(F)cc2)(c2ccc(F)cc2)c2ccc(F)cc2)cc1.[I-]` [F4TPP, Tetra-4-fluorophenylphosphonium iodide], in the assay with C6 cells [1] (5 μM probe), the “decrease in uptake on depolarization of the plasma membrane (high K+ vs low K+ buffer)” value (shortened to “decrease in uptake on depolarization”) is listed as 3.0 fold and the “effect of CCCP on uptake” value is “can also be inhibited”. The “nature of uptake (membrane potential dependence)” value (from here on “nature of uptake”) in the assay with C6 cells [1] was “electrogenic and driven by the plasma and mitochondrial membrane potentials”.
Take `Fc1ccc(C[P+](c2ccccc2)(c2ccccc2)c2ccccc2)cc1.[I-]` [FBnTP, 4-fluorobenzyl-triphenylphosphonium iodide]: in the assay with rat glioma C6 cells (5 μM, C6 cells), the “uptake compared with tetraphenylphosphonium analogs (TPP and FTPP)” value is “much lower uptake”. For the same compound, in the assay with C6 cells [1] (5 μM probe), the “decrease in uptake on depolarization” value is 1.5 fold and the “effect of CCCP on uptake” value was “can also be inhibited”. Besides, in the assay with C6 cells [1], the “nature of uptake” value is “electrogenic and driven by the plasma and mitochondrial membrane potentials”.
With `Fc1ccc([P+](c2ccccc2)(c2ccccc2)c2ccccc2)cc1` [FTPP, 4-Fluorophenyltriphenyl phosphonium], the “accumulation relative to MeTPP” value in the assay with rat glioma C6 cells (5 μM, C6 cell culture) is 8 times. In the assay with rat glioma C6 cells (5 μM, C6 cells), the “cell uptake relative to that of TPP” value is listed as “over 80%”; the percent cell uptake was found to be 9.33%; the “cell uptake / accumulation (in words)” value was “good cell uptake; also recorded: higher C6 cell uptake than both F4TPP and FBnTP”. Further, the “normalized uptake in presence of valinomycin” value in the assay with C6 cells [1] (5 μM probe, 10 μM valinomycin, low K+ HEPES buffer, one hour incubation) is reported as “about 72.8±3.6%”. Also, the “normalized uptake in presence of CCCP” value in the assay with C6 cells [1] (5 μM probe, 50 μM CCCP, low K+ HEPES buffer, one hour incubation) was “about 27.3±2.3%”. Moreover, in the assay on C6 cells [1] (5 μM probe), the “decrease in uptake on depolarization” value is 3.5 fold and the “effect of CCCP on uptake” value is “significantly inhibited”. Moreover, the “effect of valinomycin on uptake” value in the assay with C6 cells [1] (5 μM probe, valinomycin at 1 μM concentration) is “significantly inhibited”. In addition, the “nature of uptake” value in the assay on C6 cells [1] is “electrogenic and driven by the plasma and mitochondrial membrane potentials”.
Compound `C[P+](c1ccccc1)(c1ccccc1)c1ccccc1.[Br-]` [MeTPP, methyltriphenyl phosphonium bromide, reference compound] displayed a percent cell uptake in the assay on rat glioma C6 cells (5 μM, C6 cells) of 1.06%.
Regarding `Cl.[Cl-].c1ccc([P+](Cc2ccccn2)(c2ccccc2)c2ccccc2)cc1` [PyTPP, triphenyl(2-pyridylmethyl)phosphonium chloride hydrochloride], the “uptake compared with tetraphenylphosphonium analogs (TPP and FTPP)” value with rat glioma C6 cells (5 μM, C6 cells) is “much lower uptake”.
As for `CCCC[P+](CCCC)(CCCC)CCCC.[Br-]` [TBuP, tetrabutylphosphonium bromide], the “decreased cellular accumulation compared to TPP” value in the assay with rat glioma C6 cells (5 μM, C6 cells) is approximately 18 fold. In addition, the “cell uptake / accumulation (in words)” value is given as “lower cell uptake” in the assay on rat glioma C6 cells (5 μM, C6 cells) and “very low cell accumulaiton” in the assay with rat glioma C6 cells (5 μM, C6 cells, listed as TBuPP).
Take `[Br-].c1ccc([P+](c2ccccc2)(c2ccccc2)c2ccccc2)cc1` [TPP, tetraphenylphosphonium bromide, reference compound]: in the assay on rat glioma C6 cells (5 μM, 10 mins post incubation), the “amount accumulated per cell” value is given as 0.11 fmol TPP per cell. Besides, in the assay with rat glioma C6 cells (5 μM, C6 cells), the “incubation time to maximum / steady-state uptake” value was 60 min and the percent cell uptake worked out at 11.44%.
Regarding ^3H-tetraphenylphosphonium [^3H-TPP], the “time course of uptake by scintillation counting compared with MALDI-TOF-MS of TPP” value with C6 cells [2] was “almost identical pattern and the same levels of uptake”.
